Experimental data as given in US12440535B2, “IL-4 derived peptide fragments for use in the treatment of diabetic nephropathy” (SERODUS APS, priority 2022, dated 2025).
Entries after “also recorded” stand apart in the source; their conditions may differ. Where no end group is shown, it is not given here. [ ]: non-standard residue; d: D form. βAla = NCCC(=O)O

Legend:
[1] = test system: ReninAAV UNx db/db mice; test: ReninAAV UNx db/db mice model of diabetic nephropathy, urine biomarkers; type: in vivo; conditions: 10 mg/kg subcutaneously once daily, compared to vehicle, spot urine at termination day 77
Protocol: 28 female mice (BKS.Cg-Dock7m+/+Lepradb/db BLKS, 5 weeks of age) were transferred to the Gubra Research animal unit. Throughout the habituation and study period, the animals were housed in a light-, temperature-, and humidity-controlled room with free access to food and water. All animal experiments were conducted in accordance with Gubra's bioethical guidelines, which are fully compliant with internationally accepted principles for the care and use of laboratory animals. The animals were group-housed until uni-nephrectomies, then single-housed.
The animals were terminated on day 77; blood was taken for later analysis, body weight was recorded, and spot urine was collected.
Compound A was provided by Phlogo ApS, Copenhagen, Denmark (10 mg/ml miliQ water diluted to the dose formulations). Compound A was provided as a dimeric peptide comprising two copies of the sequence AQFHRHKQLIRFLKRA (SEQ ID NO: 1). […]
Urine samples were stored at minus 80° C. until analysis. […] Urine albumin was measured using a commercial ELISA kit (Bethyl Laboratories, Inc.), according to the manufacturer's instructions, and urine creatinine was measured using a commercial kit (Roche Diagnostics) on the Cobas c 501 autoanalyzer, according to the manufacturer's instructions. Urinary KIM-1 was measured using a commercial ELISA kit (R&D Systems) according to the manufacturer's instructions.

[2] = biological target: T1, type I IL-4R (Homo sapiens, UniProt P24394); conditions: Klementiv 2013; cited from earlier work
T1 sequence (P24394 26-825): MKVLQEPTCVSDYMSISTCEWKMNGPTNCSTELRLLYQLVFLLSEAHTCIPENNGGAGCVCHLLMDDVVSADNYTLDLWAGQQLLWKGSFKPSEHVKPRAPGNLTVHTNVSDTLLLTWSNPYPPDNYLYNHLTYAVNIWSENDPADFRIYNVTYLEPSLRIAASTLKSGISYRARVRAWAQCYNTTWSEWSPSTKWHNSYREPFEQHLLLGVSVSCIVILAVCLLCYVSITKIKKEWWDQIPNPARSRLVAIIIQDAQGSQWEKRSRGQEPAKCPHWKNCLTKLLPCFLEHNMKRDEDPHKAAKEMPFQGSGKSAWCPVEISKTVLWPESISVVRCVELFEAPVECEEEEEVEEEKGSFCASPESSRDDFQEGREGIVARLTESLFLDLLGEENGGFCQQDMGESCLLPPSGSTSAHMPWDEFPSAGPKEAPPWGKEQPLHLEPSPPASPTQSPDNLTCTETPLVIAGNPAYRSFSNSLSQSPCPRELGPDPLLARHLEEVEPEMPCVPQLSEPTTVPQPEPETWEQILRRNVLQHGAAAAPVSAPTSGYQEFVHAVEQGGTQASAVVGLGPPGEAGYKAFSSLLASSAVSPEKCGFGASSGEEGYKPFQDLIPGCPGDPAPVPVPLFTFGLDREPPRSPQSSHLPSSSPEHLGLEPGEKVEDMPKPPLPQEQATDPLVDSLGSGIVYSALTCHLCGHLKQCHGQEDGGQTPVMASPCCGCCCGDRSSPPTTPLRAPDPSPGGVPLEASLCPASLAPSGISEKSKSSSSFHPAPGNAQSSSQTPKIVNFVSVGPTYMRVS
T1 sequence (P31785 23-369 partner): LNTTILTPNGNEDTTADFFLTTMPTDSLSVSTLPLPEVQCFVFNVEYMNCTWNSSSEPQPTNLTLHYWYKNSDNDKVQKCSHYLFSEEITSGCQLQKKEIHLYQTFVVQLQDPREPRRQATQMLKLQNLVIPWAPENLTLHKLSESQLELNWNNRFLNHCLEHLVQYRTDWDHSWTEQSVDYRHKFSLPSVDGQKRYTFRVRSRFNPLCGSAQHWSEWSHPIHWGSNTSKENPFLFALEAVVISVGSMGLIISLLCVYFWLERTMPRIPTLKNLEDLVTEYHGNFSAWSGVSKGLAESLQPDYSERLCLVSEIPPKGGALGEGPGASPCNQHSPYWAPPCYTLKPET

[3] = biological target: T2, type II IL-4R (Homo sapiens, UniProt P24394); conditions: Klementiv 2013; cited from earlier work
T2 sequence (P24394 26-825): T1 sequence (P24394 26-825)

[4] = test system: IL-4 receptors; conditions: cited from earlier work
[5] = test system: macrophages; conditions: cited from earlier work

In the case of “Compound A: dimer of SEQ ID NO:1 (AQFHRHKQLIRFLKRA), two copies connected via their C-terminal through a lysine-beta-alanine linker (AQFHRHKQLIRFLKRAK[βAla]; also: dimer of two copies joined at C-termini via lysine-beta-alanine linker, Rink amide)”, the “ACR (urinary albumin corrected for creatinine)” value [1] is reported as “significantly decreased; also recorded: significantly reduced” and the “KIM-1/CR (urinary KIM-1 corrected for creatinine)” value [1] is reported as “significantly decreased; also recorded: significantly reduced”.

In the case of “AQFHRHKQLIRFLKRA [SEQ ID NO:1, IL-4 derived peptide, variant of AA71-AA86 of IL-4 with two amino acid substitutions]”, the “Mode of action on type I IL-4R” value [2] is listed as “high affinity partial agonist”, the “Mode of action on type II IL-4R” value [3] is listed as “antagonist” and the “Binding to the IL-4 receptors” value [4] is listed as “capable of binding to the IL-4 receptors”. For the same substance, the Macrophage activation [5] was “inhibiting macrophage activation”.
